Results on one compound are retold here after patent US20250064064A1, “METHODS FOR DESIGNING AND […] VAPOR PHASE HYDROGEN PEROXIDE DECON[…]” (Amgen Inc., priority 2021, published 2025).

In this assay the test system is viable spores of Geobacillus stearothermophilus. The following applies: for growth results for biological indicators: dose 8 mL, seven BIs, seven-day incubation, no growth = 6-Log CFU reduction. The method, then:
In general, for each of the experiments, a respective amount of gas is circulated in a chamber interior containing Bls (in these experiments, seven Bls) for a respective amount of time. Then, after removing the gas from the chamber interior, the Bls are tested to determine whether the desired CFU reduction was achieved.
One example method of determining whether the desired CFU reduction was achieved is by removing the Bls from the chamber interior after circulating a particular amount of gas for a particular amount of time, and incubating the Bls in a growth-promoting medium for seven days.
In this example, the seven Bls of FIG. 3 may be in one or more locations in the chamber interior (e.g., with at least some in locations that are relatively difficult to decontaminate in the chamber interior). The Bls may be inoculated with viable spores of Geobacillus stearothermophilus, for example, or another suitable type of thermophile bacteria. The D-value of the Bls may be provided by the manufacturer of the Bls and may be, for example, 0.25 minutes, 0.5 minutes, 1 minutes, 1.5 minutes, 2 minutes, 2.5 minutes, or any other suitable D-value.

Each structure is given as a SMILES string. Read-outs that look alike come from different tables or passages of the source.

In the case of `OO` [gas, hydrogen peroxide], under “10 mL amount of gas compared with 8 mL amount of gas”, the “growth-no growth behavior with respect to time” value is reported as “identical”. In addition, the “growth results for biological indicators” value reads like this: (gas circulated for 100 seconds) “all but one BI (BI #4) achieving no growth”; (gas circulated for 300 seconds) “no growth for all seven Bls”; (gas circulated for 500 seconds) “no growth for all seven Bls”.
